Laboratory results: PubChem BioAssay (NCI)
Several values for one entry are separate records, joined by “and”; a condition that tells them apart may be missing. Equal entries are not always repeated.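 48-hour exposure; five concentrations; linearly interpolated endpoints. At the GI50, growth is halved. TGI: total growth inhibition.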

What was measured:
Assay in all cases: inhibition of tumour cell growth, NCI panel, 48 h
[1] = system: SF-295 CNS
[2] = system: HOP-62 NSCLC
[3] = system: EKVX NSCLC
[4] = system: U251 CNS
[5] = system: IGROV1 ovarian
[6] = system: HCT-116 colon
[7] = system: PC-3 prostate
[8] = system: UO-31 renal
[9] = system: OVCAR-3 ovarian
[10] = system: SNB-19 CNS

SMILES: COc1cc2c3c(c1)c1cc(OC)c(OC)cc1c[n+]3CC2
- TGI [1]: 50 µM and > 100 µM
- GI50 [2]: 3.24 µM
- TGI [2]: 50 µM and > 100 µM
- GI50 [3]: > 100 µM
- TGI [3]: 50 µM and > 100 µM
- GI50 [4]: 1.28 µM
- TGI [4]: 50 µM and 25.9 µM
- TGI [5]: 50 µM and > 100 µM
- GI50 [6]: 40.5 µM
- TGI [6]: 50 µM and > 100 µM
- GI50 [7]: 29.9 µM
- TGI [7]: 50 µM and > 100 µM
- TGI [8]: > 100 µM
- GI50 [9]: 17.7 µM
- TGI [9]: 50 µM and > 100 µM
- GI50 [10]: 1.94 µM
- TGI [10]: 50 µM and > 100 µM

SMILES: CN1CCCN(C)C1c1cc([N+](=O)[O-])ccc1O
- TGI [1]: > 100 µM
- TGI [2]: > 100 µM
- TGI [3]: > 100 µM
- TGI [4]: > 100 µM
- TGI [5]: > 100 µM
- TGI [6]: > 100 µM
- TGI [7]: 72.9 µM
- TGI [8]: 64.8 µM
- TGI [9]: > 100 µM
- TGI [10]: > 100 µM

SMILES: C#CC1(O)C(COP(=O)(O)OC2CC(n3cc(F)c(=O)[nH]c3=O)OC2CO)OC(n2ccc(N)nc2=O)C1O (stereo not given)
- GI50 [1]: < 0.01 µM
- GI50 [2]: < 0.01 µM
- TGI [2]: > 100 µM
- GI50 [3]: 0.738 µM
- TGI [3]: 16 µM
- GI50 [4]: < 0.0138 µM
- TGI [4]: > 100 µM
- GI50 [5]: < 0.0139 µM
- TGI [5]: > 35.9 µM
- GI50 [6]: < 0.01 µM
- TGI [6]: > 100 µM
- GI50 [7]: < 0.032 µM
- TGI [7]: 29.7 µM
- GI50 [8]: < 0.0128 µM
- GI50 [9]: 0.031 µM
- GI50 [10]: < 0.0205 µM
- TGI [10]: > 100 µM

SMILES: CC(C)c1ccc(C(=O)Nc2sc3c(c2C#N)CCC(=O)C3)cc1
- GI50 [1]: 1.36 µM
- TGI [1]: > 28.1 µM
- GI50 [2]: 3.02 µM
- TGI [2]: > 87.6 µM
- GI50 [3]: 1.94 µM
- TGI [3]: > 88.8 µM
- GI50 [4]: 0.338 µM
- TGI [4]: > 100 µM
- GI50 [5]: 0.458 µM
- TGI [5]: 13.1 µM
- GI50 [6]: 0.18 µM
- TGI [6]: > 24.3 µM
- GI50 [7]: 0.263 µM
- TGI [7]: > 23.7 µM
- GI50 [8]: 0.252 µM
- TGI [8]: 0.982 µM
- GI50 [9]: 0.396 µM
- TGI [9]: 1.61 µM
- GI50 [10]: 0.409 µM
- TGI [10]: > 100 µM

SMILES: Nc1ccc2c(c1)NCCN2
- TGI [1]: > 100 µM
- TGI [2]: > 100 µM
- TGI [3]: > 100 µM
- TGI [4]: > 100 µM
- TGI [5]: > 100 µM
- TGI [6]: > 100 µM
- TGI [7]: > 100 µM
- TGI [8]: > 100 µM
- TGI [9]: > 100 µM
- TGI [10]: > 100 µM

SMILES: Cn1ncc2c(N)nc(N3CCCCC3)nc21
- GI50 [1]: 26.5 µM
- TGI [1]: > 100 µM
- GI50 [2]: 51.9 µM
- TGI [2]: > 100 µM
- GI50 [3]: 91.2 µM
- TGI [3]: > 100 µM
- GI50 [4]: 30.7 µM
- TGI [4]: > 100 µM
- GI50 [5]: 33.9 µM
- TGI [5]: > 100 µM
- GI50 [6]: 45.3 µM
- TGI [6]: > 100 µM
- GI50 [7]: 33.5 µM
- TGI [7]: > 100 µM
- GI50 [8]: 43 µM
- TGI [8]: > 100 µM
- GI50 [9]: 19.9 µM
- TGI [9]: 71.7 µM
- GI50 [10]: 22.5 µM
- TGI [10]: > 100 µM

SMILES: CC(C)c1ccc(/C(C(=O)O)=C(\O)C(=O)O)cc1
- TGI [1]: > 100 µM
- TGI [2]: > 100 µM
- TGI [3]: > 100 µM
- TGI [4]: > 100 µM
- TGI [5]: > 100 µM
- TGI [6]: > 100 µM
- TGI [7]: > 100 µM
- TGI [8]: > 100 µM
- TGI [9]: > 100 µM
- TGI [10]: > 100 µM

SMILES: CCOC(=O)c1[nH]c(-c2ccc(Cl)cc2)cc1-c1cccnc1
- GI50 [1]: 0.453 µM
- TGI [1]: > 100 µM
- GI50 [2]: 0.868 µM
- TGI [2]: > 100 µM
- GI50 [3]: 1.35 µM
- TGI [3]: > 100 µM
- GI50 [4]: 0.622 µM
- TGI [4]: > 100 µM
- GI50 [5]: 1.37 µM
- TGI [5]: > 100 µM
- GI50 [6]: 0.387 µM
- TGI [6]: > 100 µM
- GI50 [7]: 0.325 µM
- TGI [7]: > 100 µM
- GI50 [8]: 1.02 µM
- TGI [8]: > 100 µM
- GI50 [9]: 0.349 µM
- TGI [9]: > 100 µM
- GI50 [10]: 8.33 µM
- TGI [10]: > 100 µM

SMILES: COCCOC(=O)NC(=O)Nc1ccc(/C(=N/O)c2ccc(Cl)cc2)cc1
- GI50 [1]: 0.123 µM
- TGI [1]: 0.559 µM
- GI50 [2]: 0.127 µM
- TGI [2]: 41.2 µM
- GI50 [3]: 0.161 µM
- TGI [3]: > 89.8 µM
- GI50 [4]: 0.12 µM
- TGI [4]: 33 µM
- GI50 [5]: 0.269 µM
- TGI [5]: > 69 µM
- GI50 [6]: 0.112 µM
- TGI [6]: 23.6 µM
- GI50 [7]: 0.141 µM
- TGI [7]: 64.2 µM
- GI50 [8]: 0.284 µM
- TGI [8]: 26.5 µM
- GI50 [9]: 0.0991 µM
- TGI [9]: 4.4 µM
- GI50 [10]: 0.535 µM
- TGI [10]: > 100 µM

SMILES: CCOC(=O)C(CO)c1nc2c([nH]c1=O)c(=O)n(C)c(=O)n2C (stereo not given)
- TGI [1]: > 100 µM
- TGI [2]: > 100 µM
- TGI [3]: > 100 µM
- TGI [4]: > 100 µM
- TGI [5]: > 100 µM
- TGI [6]: > 100 µM
- TGI [7]: > 100 µM
- TGI [8]: > 100 µM
- TGI [9]: > 100 µM
- TGI [10]: > 100 µM

SMILES: O=C(c1ccc2ncc(-c3nc(NC4CC4)ncc3F)n2c1)N1CCOCC1
- GI50 [1]: 2.64 µM
- TGI [1]: > 100 µM
- GI50 [2]: 2.95 µM
- TGI [2]: 8.28 µM
- GI50 [3]: 2.85 µM
- TGI [3]: 71.7 µM
- GI50 [4]: 2.46 µM
- TGI [4]: > 100 µM
- GI50 [5]: 2.42 µM
- TGI [5]: 12.2 µM
- GI50 [6]: 1.23 µM
- TGI [6]: 10.4 µM
- GI50 [7]: 2.14 µM
- TGI [7]: 8.86 µM
- GI50 [8]: 2.66 µM
- TGI [8]: 13.6 µM
- GI50 [9]: 2.21 µM
- TGI [9]: 7.22 µM

SMILES: COc1cc(/C=C\[N+](=O)[O-])ccc1OCc1ccccc1
- GI50 [1]: 4.07 µM
- TGI [1]: 18.8 µM
- GI50 [2]: 2.35 µM
- TGI [2]: 6.58 µM
- GI50 [3]: 3.71 µM
- TGI [3]: 17.6 µM
- GI50 [4]: 1.55 µM
- TGI [4]: 3.01 µM
- GI50 [5]: 2.48 µM
- TGI [5]: 7.6 µM
- GI50 [7]: 3.5 µM
- TGI [7]: 25.4 µM
- GI50 [8]: 1.54 µM
- TGI [8]: 3.06 µM
- GI50 [9]: 1.62 µM
- TGI [9]: 3.71 µM
- GI50 [10]: 2.64 µM
- TGI [10]: 8.41 µM
